Test results published in patent US10624917B2, “Compositions and methods useful for treating or preventing liver diseases or disorders, and promoting weight loss” (YALE UNIVERSITY, priority 2014, dated 2020).

System: Il1b and other genes in PECs
Experiment: Quantitative real-time RT-PCR gene expression in PECs
Assay type: cell-based, mouse
Settings: for ability to supersede LPS tolerance for TIMP-1, VEGF and GLUT-1 gene expression / expression level of IL6 / expression level of Il1b / expression level of Il4: LPS primed PECs; for expression level of IL6 / expression level of Il1b / expression level of Il4: over 6 and 24 hours; for Il1b mRNA expression: PECs pretreated with LPS for 16 hours (LPS tolerant)
Protocol: FIGS. 3A-3I illustrate the finding that adenosine supersedes LPS induced tolerance and increases IL-1β production by upregulating transcription of pro-IL-1β via cAMP-PKA pathway. PECs were used in all of the following experiments. FIG. 3A: Primed (pri) with LPS (100 ng/ml) for 16 hours followed by stimulation (stim) with LPS (100 ng/ml), or NECA (10 μM) or CGS21680 (10 μM) in the presence or absence of LPS (100 ng/ml) for 6 hours. FIG. 3B: Treated with forskolin for 6 hours as indicated doses with and without LPS priming FIG. 3C: Treated with or without NECA (10 μM), CGS21680 (10 μM) or db-cAMP (200 μM) for 6 hours. FIG. 3D: LPS primed and treated with NECA or CGS21680 in the presence and absence of SQ22536, H89 and PKi. FIG. 3E: Primed with LPS for 16 hours and treated with ATP for 20 min, followed by CGS 21680 in the presence or absence of the adenylyl cyclase and PKA inhibitors SQ22536 and H-89. FIG. 3F: Primed with LPS and treated with or without NECA (10 μM) or db-cAMP (200 μM) for 6 hours. FIG. 3G: Treated with or without CGS21680 (10 μM) for 3 hours, and transcription was stopped by adding […] actinomycin D, and RNA samples collected at indicated times-points. FIG. 3H: LPS primed PECs obtained from wild type or A2AR-cKO mice were stimulated with NECA (10 μM) for 6 hours. The cells were harvested and RNA isolated after each treatment and the gene expression of Il1b and other genes as indicated quantified by real-time PCR using specific primers. FIG. 3I: Primed with LPS for 16 hours and treated with ATP for 20 min, followed by CGS 21680 in the presence or absence of SQ22536 or H-89 Immunoblot analysis of the proIL-1β caspase-1 in cell lysate was performed by specific […] and anti caspase-1 p10 antibodies (FIGS. 3C, 3E-3F, 3I). Data are expressed as the mean±SD from three independent experiments Immunoblots shown are representative results from at least three independent experiments. *p<0.05 determined by Student's t-test.
FIGS. 9A-9H illustrate changes in expression of cytokines and tissue repair genes in peritoneal macrophages in response to adenosine agonists. LPS naive or LPS primed PECs were stimulated with LPS (100 ng ml^−1), CGS21680 (10 μM) or NECA (10 μM) at different time points as indicated. The cells were harvested and RNA isolated after each treatment, and the gene expression of ProIL-1β (Il1b) (FIG. 9A), IL-6 (Il6) (FIG. 9B), IL-4 (Il4) (FIG. 9C), TNF-α (tnfa) (FIG. 9D), TIMP-1 (Timp1) (FIG. 9E), VEGF (vegf) (FIG. 9F), PGK-1 (Pgk1) (FIG. 9G), GLUT-1 (Slc2a1) (FIG. 9H) quantified by real-time PCR using each specific gene primer set as listed. Data are expressed as the mean±SD from three independent experiments. *p<0.05 determined by Student's t-test.
Total RNA was extracted using TRIZOL reagent (Invitrogen), and cDNA was generated with an oligo (dT) primer and the Superscript II system (Invitrogen, USA) followed by analysis using LightCycler 480 system (Roche). q-PCR was performed for Il1b using commercial primer-probe sets (Applied Biosystems Inc.) with DNA master Mix (Roche). Expression of GAPDH was used to standardize the samples, and the results were expressed as a ratio relative to control; q-PCR was performed for tnfa, 116, Txnip, Nlrp3, Hif1a, Timp1, using LightCycler 480 SYBR Green I master mix (Roche). Results were normalized based on the expression of β-actin.

CCNC(=O)[C@H]1O[C@@H](n2cnc3c(N)nc(NCCc4ccc(CCC(=O)O)cc4)nc32)[C@H](O)[C@@H]1O [CGS21680]
ability to supersede LPS tolerance for TIMP-1, VEGF and GLUT-1 gene expression: consistent ability | expression level of IL6: increase | expression level of Il1b: increase | expression level of Il4: increase | Il1b mRNA expression: dramatic increase | Il1b transcript stability (rate of loss of Il1b mRNA) (transcription stopped with actinomycin D): did not affect transcript stability

CCNC(=O)[C@H]1O[C@@H](n2cnc3c(N)ncnc32)[C@H](O)[C@@H]1O [NECA, 5′-(N-ethylcarboxamido) adenosine]
ability to supersede LPS tolerance for TIMP-1, VEGF and GLUT-1 gene expression: consistent ability | expression level of IL6: increase | expression level of Il1b: increase | expression level of Il4: increase | Il1b mRNA expression: dramatic increase
